Our source for the IC50 values is ChEMBL document CHEMBL3639238, “Hybrid cholinesterase inhibitors” (2014).

In one experiment the target is Acetylcholinesterase (Homo sapiens, UniProt P22303). Kind of experiment: (§1) Inhibition Assay: The biological activity of the compounds of general formula (I) towards the cholinesterase inhibition was evaluated using Ellman's method (Ellman, G. L.; Courtney, K. D.; Anders, B.; Featherstone, R. M. Biochem. Pharmacol. 1961, 7, 88-95).This method of evaluation of the cholinesterase inhibitors activity is based on the fact that acetyl/butyrylcholinesterase interacts with the inhibitor, which prevents the acetyl/butyrylcholine hydrolysis. The inhibitor causes the enzyme activity drop which is dependent on the inhibitor concentration. The enzyme unbound with the inhibitor is able to hydrolyze acetyl/butyrylthiocholine (ASCh/BSCh). The amount of the hydrolyzed ASCh/BSCh is measured indirectly, by quantification of the product of its reaction with DTNB (5,5â²-dithio-bis-2-nitrobenzoic acid). Ellman's method relies therefore on the spectrophotometric quantification of product of the reaction between […] and DTNB.
Chain of Acetylcholinesterase (P22303 whole entry): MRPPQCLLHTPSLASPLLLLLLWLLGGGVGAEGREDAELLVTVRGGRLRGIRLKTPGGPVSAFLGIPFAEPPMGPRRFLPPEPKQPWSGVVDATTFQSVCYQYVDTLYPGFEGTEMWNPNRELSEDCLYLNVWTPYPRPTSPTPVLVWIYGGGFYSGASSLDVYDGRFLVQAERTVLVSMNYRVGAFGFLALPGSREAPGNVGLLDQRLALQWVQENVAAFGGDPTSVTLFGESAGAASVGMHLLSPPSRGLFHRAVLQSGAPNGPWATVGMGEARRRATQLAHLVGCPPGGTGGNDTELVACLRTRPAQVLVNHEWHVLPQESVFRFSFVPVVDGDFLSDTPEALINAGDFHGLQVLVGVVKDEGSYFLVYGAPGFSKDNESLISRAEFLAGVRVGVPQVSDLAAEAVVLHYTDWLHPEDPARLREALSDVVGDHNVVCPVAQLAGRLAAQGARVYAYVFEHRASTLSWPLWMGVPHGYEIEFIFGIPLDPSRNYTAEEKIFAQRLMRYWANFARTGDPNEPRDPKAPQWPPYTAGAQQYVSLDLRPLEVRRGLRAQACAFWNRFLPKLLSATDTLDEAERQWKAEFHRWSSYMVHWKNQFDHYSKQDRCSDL

The next experiment has as its target Cholinesterase (Homo sapiens, UniProt P06276). Described as §1.

Chain of Cholinesterase (P06276 whole entry): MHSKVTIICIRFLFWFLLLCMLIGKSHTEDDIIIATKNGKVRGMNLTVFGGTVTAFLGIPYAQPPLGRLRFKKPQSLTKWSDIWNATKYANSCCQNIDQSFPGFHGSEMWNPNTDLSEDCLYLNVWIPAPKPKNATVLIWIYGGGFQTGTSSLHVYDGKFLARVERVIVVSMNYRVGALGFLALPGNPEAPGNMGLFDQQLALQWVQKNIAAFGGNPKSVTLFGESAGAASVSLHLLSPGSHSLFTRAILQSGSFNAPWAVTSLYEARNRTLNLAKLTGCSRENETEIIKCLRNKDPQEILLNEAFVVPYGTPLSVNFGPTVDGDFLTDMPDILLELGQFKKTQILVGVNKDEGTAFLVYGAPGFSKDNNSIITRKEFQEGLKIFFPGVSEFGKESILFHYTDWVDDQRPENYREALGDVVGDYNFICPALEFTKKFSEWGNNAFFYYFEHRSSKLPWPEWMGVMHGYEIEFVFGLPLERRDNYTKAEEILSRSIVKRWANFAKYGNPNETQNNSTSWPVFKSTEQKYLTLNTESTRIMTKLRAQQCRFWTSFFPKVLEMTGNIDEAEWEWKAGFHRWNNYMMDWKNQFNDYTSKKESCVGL

For the molecule `CC(=O)NCCc1c[nH]c2ccc(OC(=O)NCCNc3c4c(nc5cc(Cl)ccc35)CCCC4)cc12`, the results for the IC50 on Acetylcholinesterase and against Cholinesterase were 20.1 nM and 34.5 nM, respectively.

For the molecule `CC(=O)NCCc1c[nH]c2ccc(OC(=O)NCCCCCCCNc3c4c(nc5cc(Cl)ccc35)CCCC4)cc12`, the figures for the IC50 against Acetylcholinesterase and on Cholinesterase were 7.7 nM and 0.38 nM, respectively.

Turning to `CC(=O)NCCc1c[nH]c2ccc(OC(=O)NCCCCCCCCCCNc3c4c(nc5cc(Cl)ccc35)CCCC4)cc12`, the IC50 was 8.1 nM against Acetylcholinesterase and 1.2 nM against Cholinesterase.

Consider `CC(=O)NCCc1c[nH]c2ccc(OC(=O)NCCCCCCCCCCCCNc3c4c(nc5cc(Cl)ccc35)CCCC4)cc12`, for which the figures for the IC50 on Acetylcholinesterase and on Cholinesterase were 25.6 nM and 1.31 nM, respectively.

Take `CC(=O)NCCc1c[nH]c2ccc(OC(=O)NCCNc3c4c(nc5ccc(Cl)cc35)CCCC4)cc12`: the values for the IC50 against Acetylcholinesterase and at Cholinesterase were 3280 nM and 8.2 nM, respectively.

Consider `CC(=O)NCCc1c[nH]c2ccc(OC(=O)NCCCCCCCNc3c4c(nc5ccc(Cl)cc35)CCCC4)cc12`, for which the values for the IC50 against Acetylcholinesterase and against Cholinesterase were 39.9 nM and 0.88 nM, respectively.
